# Reference: patent publication US6541503B2, “Substituted oxindole derivatives as protein tyrosine kinase and as protein serine/threonine kinase inhibitors” (SmithKline Beecham Corporation, priority 1997, dated 2003)
# Where two headings read alike, the source gives them in different places.
# Columns and labels:
# CDK1 = CDK1 (Homo sapiens, UniProt P06493); test: Cyclin dependent protein kinase substrate phosphorylation assay, CDK1; assay type: biochemical
# Experimental: Cyclin dependent protein kinase assays utilized the peptides Biotin-aminohexyl-[…] and Biotin-aminohexyl-[…]-NH2 as phosphoryl group acceptors. CDK1 and CDK2 were both expressed utilizing a baculovirus expression system and were partially purified to comprise 20-80% of total protein, with no detectable competing reactions present. Typically, assays were performed by incubating either enzyme (0.2-10 nM), with and without inhibitor, one of the two peptide substrates ([…]), [γ-^32P]ATP ([…]), and 10-20 mM Mg^2+ for periods of time generally within the range 10-120 min. Reactions were terminated with 0.2-2 volumes of either 20% acetic acid or 50-100 mM EDTA buffered to pH 7 (substrate consumption<20%). The buffer employed in enzyme assays was either 30 mM HEPES 7.4 containing 0.15 M NaCl and 5% DMSO, the buffer 50 mM MOPS 7.0 containing 0.15 M NaCl and 5% DMSO, or the buffer 100 mM HEPES pH 7.5 containing 0.1 mg /mL BSA and 5% DMSO. Inhibitors were diluted in 100% DMSO prior to addition into the assay. Detection of peptide phosphorylation was accomplished by scintillation counting following either collection of peptide onto phosphocellulose filters (for reactions stopped with acetic acid), collection of peptide in wells of 96 well plates coated with Streptavidin (Pierce) (reactions were stopped with EDTA), or addition of Avidin coated Scintillant impregnated beads (Scintillation Proximity Assays from Amersham, reactions were stopped with EDTA).
# VEGFR2 = VEGFR2 (Homo sapiens, UniProt P35968); test: VEGFR-2 kinase domain peptide phosphorylation Elisa; assay type: biochemical
# Experimental: The peptide substrate used in the VEGFR-2 assay was biotin-aminohexyl-[…]-NH2. The kinase domain of the enzyme was purified to homogeneity from a baculovirus expression system. The enzyme was preactivated on ice for 15 min in the presence of 100 μM ATP and 20 mM MgCl2, and stored at −80° C. until needed for assay. The activated enzyme was diluted to 0.4 nM into a 60 μl reaction containing 100 mM HEPES, pH 7.5, 5 μM ATP, 10 mM MgCl2, 5 μM peptide, 0.1 mM DTT, 0.05 mg/ml BSA, and an inhibitor at varying concentrations. The controls were reactions in the presence (negative controls) or absence (positive controls) of 50 mM EDTA. Reactions were incubated for 30 min at room temperature, and then quenched by the addition of EDTA to 60 mM in 210 μl. The quenched samples (190 μl) were transferred to a neutravidin-coated plate (Pierce) and incubated at room temperature for 40 min to allow biotinylated peptide to bind to the neutravidin. The unbound components of the reaction were removed by washing with a plate washer, then 200 μl HRP-PY20 anti-phosphotyrosine antibody conjugate was added to each well. After incubation for 40 min, the plate was washed to remove any unbound antibody. A HRP substrate, K-blue (Neogen) was added and the reaction was quenched with Red Stop (Neogen) after 20 min. The absorbance of the wells was read at A650 in a plate reader. IC50 values were obtained by fitting raw data to A650=Vmax*(1−[l]/IC50+[l])))+b, where b is background.
# CDK2 = CDK2 (Homo sapiens, UniProt P24941); test: Cyclin dependent protein kinase substrate phosphorylation assay, CDK2; assay type: biochemical
# Experimental: CDK1 and CDK2 were both expressed utilizing a baculovirus expression system and were partially purified to comprise 20-80% of total protein, with no detectable competing reactions present. […] Reactions were terminated with 0.2-2 volumes of either 20% acetic acid or 50-100 mM EDTA buffered to pH 7 (substrate consumption<20%). The buffer employed in enzyme assays was either 30 mM HEPES 7.4 containing 0.15 M NaCl and 5% DMSO, the buffer 50 mM MOPS 7.0 containing 0.15 M NaCl and 5% DMSO, or the buffer 100 mM HEPES pH 7.5 containing 0.1 mg /mL BSA and 5% DMSO. Inhibitors were diluted in 100% DMSO prior to addition into the assay. Detection of peptide phosphorylation was accomplished by scintillation counting following either collection of peptide onto phosphocellulose filters (for reactions stopped with acetic acid), collection of peptide in wells of 96 well plates coated with Streptavidin (Pierce) (reactions were stopped with EDTA), or addition of Avidin coated Scintillant impregnated beads (Scintillation Proximity Assays from Amersham, reactions were stopped with EDTA).
# [1] = test system: HDF normal diploid fibroblast cells; test: MTT assay, HDF; assay type: cell-based, human; settings: Homo sapiens, Fibroblast, 72 h, read-out: MTT HDF IC50
# Experimental: Compounds are tested for their ability to inhibit cell proliferation and cell viability. The metabolic conversion of 3-(4,5-dimethylthiazol-2-yl)-2,5-diphenyltetrazolium bromide (MTT, Sigma #M2128) to a reduced form is a commonly used measure of cellular viability. Following is the procedure:
# Cells are maintained in 75 cm^2 tissue culture flasks until ready for use. The cells are grown and plated for the assay in Dulbecco's modified Eagle's media (DMEM) containing 10% fetal bovine serum. For example, the following cell lines can be used: a) human foreskin fibroblasts (HFF); b) HT29 (human colon carcinoma cell line); c)MDA-MB-468 (human breast carcinoma cell line); d) RKO (human colon adenocarcinoma cell line); e) SW620 (human colon carcinoma cell line); f) A549 (human lung carcinoma cell line); and g) MIA PACA (human pancreatic carcinoma cell line). Cells are maintained at 37° C. in 10% CO2, 90% humidified air. Cells are plated in 96-well tissue culture plates at the densities listed below. […]
# Cells are returned to incubator and allowed to proliferate in the presence of compound for 72 h before addition of MTT. […] Quantitation of metabolic reduction of MTT in each plate is performed by reading optical density at 570 nm wavelength on a Molecular Devices UVmax microplate reader. Growth inhibition curves and 50% inhibitory concentrations are determined using Microsoft Excel. […]
# VEGFR2, sequence (P35968 834-1162 limits assumed, species assumed): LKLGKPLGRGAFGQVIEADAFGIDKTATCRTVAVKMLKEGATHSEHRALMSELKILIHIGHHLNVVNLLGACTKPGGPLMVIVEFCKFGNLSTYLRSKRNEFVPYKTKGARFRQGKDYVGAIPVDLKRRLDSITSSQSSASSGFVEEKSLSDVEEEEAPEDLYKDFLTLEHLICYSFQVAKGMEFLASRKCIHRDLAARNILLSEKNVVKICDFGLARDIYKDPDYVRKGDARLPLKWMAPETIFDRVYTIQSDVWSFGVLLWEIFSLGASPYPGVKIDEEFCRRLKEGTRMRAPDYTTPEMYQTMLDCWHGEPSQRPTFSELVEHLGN
# CDK1, sequence (P06493 whole entry, species assumed): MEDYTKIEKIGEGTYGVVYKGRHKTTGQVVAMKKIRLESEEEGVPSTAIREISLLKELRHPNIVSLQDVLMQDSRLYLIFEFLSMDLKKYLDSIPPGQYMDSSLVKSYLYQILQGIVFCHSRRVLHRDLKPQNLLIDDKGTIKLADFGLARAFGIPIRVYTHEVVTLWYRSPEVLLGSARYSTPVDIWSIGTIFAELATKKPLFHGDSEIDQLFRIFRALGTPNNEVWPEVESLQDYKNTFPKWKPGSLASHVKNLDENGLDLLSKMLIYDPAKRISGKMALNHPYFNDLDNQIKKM
# CDK1, sequence (P14635 whole entry partner, species assumed): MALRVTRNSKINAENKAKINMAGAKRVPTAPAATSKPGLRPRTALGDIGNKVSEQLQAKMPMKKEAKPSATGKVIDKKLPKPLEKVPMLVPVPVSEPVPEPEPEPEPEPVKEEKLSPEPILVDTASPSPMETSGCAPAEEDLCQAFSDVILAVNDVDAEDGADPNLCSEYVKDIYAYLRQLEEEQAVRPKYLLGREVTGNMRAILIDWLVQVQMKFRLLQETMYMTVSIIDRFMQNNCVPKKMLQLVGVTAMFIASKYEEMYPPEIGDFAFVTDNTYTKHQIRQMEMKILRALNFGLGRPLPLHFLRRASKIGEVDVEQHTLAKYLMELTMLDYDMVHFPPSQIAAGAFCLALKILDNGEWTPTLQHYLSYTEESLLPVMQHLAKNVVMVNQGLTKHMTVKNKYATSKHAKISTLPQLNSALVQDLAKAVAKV
SMILES,IC50 (CDK1; read-out: CDK1 IC50),IC50 (VEGFR2),IC50 (CDK2),IC50 (CDK1),IC50 [1]
"CS(=O)(=O)Cc1ccc(NC=C2C(=O)Nc3ccc4ncsc4c32)cc1 [Example 76, 8-(4-Methylsulfonylmethyl-phenylamino-methylene)-6,8-dihydro-1-thia-3,6-diaza-as-indacen-7-one]",> 100 nM,> 100 nM,11 to 50 nM,,
"CC(C)(CO)CNS(=O)(=O)c1ccc(NC=C2C(=O)Nc3ccc4ncsc4c32)cc1 [Example 77, N-(3-Hydroxy-2,2-dimethyl-propyl)-4-[(7-oxo-6,7-dihydro-1-thia-3,6-diaza-as-indacen-8-ylidenemethyl)-amino]-benzenesulfonamide]",1 to 10 nM,,,,
"CNS(=O)(=O)Cc1ccc(NN=C2C(=O)Nc3ccc4ncccc4c32)cc1 [Example 68, N-Methyl-C-{4-[N′-(2-oxo-2,3-dihydro-pyrrolo[3,2-f]quinolin-1-ylidene)-hydrazino]-phenyl}-methanesulfonamide]",51 to 100 nM,,1 to 10 nM,,
CNS(=O)(=O)Cc1ccc(NN=C2C(=O)Nc3cc(C)c(O)c(C)c32)cc1 [Example 99],> 100 nM,> 100 nM,,,
"O=C1Nc2ccc3ncsc3c2C1=CNc1ccc(S(=O)(=O)Nc2ccccn2)cc1 [Example 72, 4-[(7-Oxo-6,7-dihydro-1-thia-3,6-diaza-as-indacen-8-ylidenemethyl)-amino]-N-pyridin-2-yl-benzenesulfonamide]",,51 to 100 nM,,51 to 100 nM,> 5000 nM
